From BindingDB's records for doi:10.1021/acs.jmedchem.9b01392 (AstraZeneca, 2020) come the findings set out here.

SMILES strings stand for the structures. Where only a bound is given, the exact number is not on record here.

The assay concerns the target T1, Tyrosine-protein kinase JAK3 (Homo sapiens, UniProt P52333).
T1 sequence (P52333 whole entry): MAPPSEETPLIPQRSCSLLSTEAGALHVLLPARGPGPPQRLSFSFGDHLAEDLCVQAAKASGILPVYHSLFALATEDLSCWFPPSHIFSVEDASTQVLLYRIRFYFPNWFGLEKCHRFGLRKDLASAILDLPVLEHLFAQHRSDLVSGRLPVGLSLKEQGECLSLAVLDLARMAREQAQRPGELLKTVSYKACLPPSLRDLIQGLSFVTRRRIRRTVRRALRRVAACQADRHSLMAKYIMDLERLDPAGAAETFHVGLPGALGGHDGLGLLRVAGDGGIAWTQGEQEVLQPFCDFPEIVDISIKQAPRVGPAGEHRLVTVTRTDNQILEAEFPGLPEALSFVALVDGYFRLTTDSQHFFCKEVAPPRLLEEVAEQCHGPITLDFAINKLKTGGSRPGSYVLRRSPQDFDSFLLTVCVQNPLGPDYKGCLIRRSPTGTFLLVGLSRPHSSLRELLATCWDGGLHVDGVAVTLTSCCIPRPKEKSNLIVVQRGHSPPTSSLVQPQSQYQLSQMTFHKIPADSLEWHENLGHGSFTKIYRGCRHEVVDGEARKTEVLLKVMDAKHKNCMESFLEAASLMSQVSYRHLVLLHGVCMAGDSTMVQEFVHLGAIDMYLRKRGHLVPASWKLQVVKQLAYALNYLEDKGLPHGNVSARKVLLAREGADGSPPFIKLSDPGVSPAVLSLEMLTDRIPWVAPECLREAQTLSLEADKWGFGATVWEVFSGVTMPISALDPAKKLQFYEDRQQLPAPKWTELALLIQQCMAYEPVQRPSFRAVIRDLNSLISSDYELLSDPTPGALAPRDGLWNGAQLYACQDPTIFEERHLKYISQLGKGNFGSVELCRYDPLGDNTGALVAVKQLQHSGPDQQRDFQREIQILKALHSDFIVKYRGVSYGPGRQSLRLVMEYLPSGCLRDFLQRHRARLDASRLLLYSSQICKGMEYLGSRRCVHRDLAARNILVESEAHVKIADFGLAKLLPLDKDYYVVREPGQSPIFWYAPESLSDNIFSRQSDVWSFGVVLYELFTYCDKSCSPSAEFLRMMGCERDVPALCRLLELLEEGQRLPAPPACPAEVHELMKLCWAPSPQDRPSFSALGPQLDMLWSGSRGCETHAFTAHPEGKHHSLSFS
In words: Inhibition of JAK3 (unknown origin).

For orientation: IC50 means the concentration needed to halve the response being measured. `COc1nn(C)cc1Nc1nccc(-c2c[nH]c3c(NC(=O)[C@@H](C)N4CCN(C)CC4)cccc23)n1` [(2R)-N-(3-{2-[(3-methoxy-1-methyl-1H-pyrazol-4-yl)amino]pyrimidin-4-yl}-1H-indol-7-yl)-2-(4-methylpiperazin-1-yl)propanamide] yielded an IC50 greater than 30 µM.
